According to patent US20250281609A1, “COMPOSITION FOR TREATING OR PREVENTING CANCER” (ORGANOIDSCIENCES LTD., priority 2021, published 2025):

How the values were obtained:
[1] = test system: colorectal cancer organoids; assay: Colorectal cancer organoid viability (growth rate and death rate); type: cell-based, human; details: for increase in efficacy (cancer organoid death) of the combination of the HVEM inhibitor with the HSP inhibitor compared to HVEM inhibitor alone: 72 hours after treatment, FIG. 6
Protocol: To evaluate whether the combination of HVEM inhibitor and HSP inhibitor exerts a synergistic effect as a cancer preventive or therapeutic agent, we conducted the following experiment. Specifically, colorectal cancer organoids were treated with either an HVEM inhibitor alone, an HSP inhibitor alone, or a combination of both. The anticancer efficacy of the combination treatment was assessed by measuring cancer organoid viability.
For HVEM inhibitor, anti-HVEM antibodies (CW10, Santa Cruz, #sc-21718; R&D Systems, #MAB356-SP) were used at 10 nM. For inhibitor of HVEM ligands, anti-BTLA antibodies (Mybiosource, #MBS633646; Adipogen, #AG-20B-0049) were used at 10 nM. For HSP inhibitors, Luminespib (AUY922, Selleck, #s1069; HSP90-targeting), Ganetespib (STA-9090, Selleck, #s1159; HSP90-targeting), Tanespimycin (17-AAG, Selleck, #s1141; HSP90-targeting), BIIB021 (Selleck, #s1175; HSP90-targeting), Onalespib (AT13387, Selleck, #s1163; HSP90-targeting), HSP990 (#s7097; Selleck, HSP90-targeting), KNK437 (#s7750; Selleck, HSP40-targeting), and VER-155008 (Selleck, #s7751; HSP70-targeting) were used.
The viability of cancer organoids was assessed through growth rate and death rate of cancer organoids as follows.

[2] = test system: colorectal cancer organoids xenograft tumors; assay: Mouse tumor xenograft model using colorectal cancer organoids, humanized with PBMCs; type: in vivo; details: harvested tumor tissues, FIG. 10
Protocol: Specifically, monotherapy with an HVEM inhibitor, monotherapy with a BTLA inhibitor, monotherapy with an HSP inhibitor, combination therapy with an HVEM inhibitor and an HSP inhibitor, combination therapy with a BTLA inhibitor and an HSP inhibitor, or combination therapy with an HVEM inhibitor, a BTLA inhibitor, and an HSP inhibitor was administered to a mouse tumor xenograft model using colorectal cancer organoids. In addition, since the effect of inhibitors of HVEM and its ligand requires the presence of immune cells, PBMCs were introduced into the mice bearing the xenograft tumors to generate humanized mice. The inhibitors were administered a total of four times on days 15, 18, 21, and 24 after tumor transplantation.
As an HVEM (Herpesvirus entry mediator) inhibitor, an anti-HVEM antibody (CW10, Santa Cruz, #sc-21718) was used at a dose of 1 mg/kg; as an inhibitor of the HVEM ligand, an anti-BTLA antibody (Mybiosource, #MBS633646) was used at a dose of 1 mg/kg; and as an HSP (heat shock protein) inhibitor, Luminespib (AUY922, Selleck, #s1069; targeting HSP90) was used at a dose of 0.5 mg/kg.
From day 7 after tumor implantation, tumor size was measured three times per week. After completion of the experiment, the shape of the harvested tumors was analyzed, and tumor weight was measured. […]

[3] = colorectal cancer organoids, increasing concentrations

SMILES	increase in efficacy (cancer organoid death) of the combination of the HVEM inhibitor with the HSP inhibitor compared to HVEM inhibitor alone ([1]; colorectal cancer organoids)	increase in cancer organoid death rate, high concentration vs low concentration ([1]; 100 nM or higher compared to 1 to 5 nM)	cancer organoid death rate [1, 3]	growth rate of cancer organoids over time [1, 3]	hCD8+ T cells infiltrated into the tumor tissue (IHC) [2]
C=CCNC1=C2C[C@@H](C)C[C@H](OC)[C@H](O)[C@@H](C)/C=C(\C)[C@H](OC(N)=O)[C@@H](OC)/C=C\C=C(/C)C(=O)NC(=CC1=O)C2=O [17-AAG, Tanespimycin]	approximately 2.9 fold				
CCNC(=O)c1noc(-c2cc(C(C)C)c(O)cc2O)c1-c1ccc(CN2CCOCC2)cc1 [AUY922, Luminespib]	≥ 3.4 fold	> 3.6 fold	increased cancer organoids death rate	reduced growth over time	barely detected
CC(C)c1cc(-c2n[nH]c(=O)n2-c2ccc3c(ccn3C)c2)c(O)cc1O [STA-9090, Ganetespib]	approximately 2.9 fold				
